Patent US20160109459A1, “Compositions And Methods For Heparan Sulfate As A Biomarker For Transplant Rejection” (Duke University, priority 2012, published 2016)

How the values were obtained:
[1] = system: purified T cells from C57BL/6 mice stimulated with bone marrow-derived BALB/c DCs; experiment: Allogeneic T cell proliferation assay (3H-thymidine incorporation, IFN-γ ELISA); type: cell-based, mouse; conditions: for alloreactive T cell proliferation compared to media alone: WT BALB/c DCs + C57BL/6 T cells, 72 h then 3H-thymidine 16 h, HS 100 μg/mL, HSP70 5 μg/mL, C12-iE-DAP 1 μg/mL, L18-MDP 1 μg/mL
Experimental: Cells were co-cultured either alone (media) or in the presence of LPS (100 ng/mL), Pam3CSK4 (2 μg/mL), hyaluronan (HA) (100 μg/mL), sonicated-HA (sHA) (100 μg/mL), fibronectin (FN) (100 μg/mL), fibrinogen (Fbn) (100 μg/mL), heparan sulfate (HS) (100 μg/mL), HSP70 (5 μg/mL), HMGB1 (1 μg/mL), C12-iE-DAP (1 μg/mL), or L18-MDP (1 μg/mL) for 72 hours, and then pulsed ^3H-thymidine for 16 hours. Proliferation was determined by ^3H incorporation and results are expressed as cpm±SEM. Baseline alloreactivity is indicated by the dotted line; *p<0.05 compared with media alone. […] Results are representative of three independent experiments.
T cell proliferation assay: DCs were generated from bone marrow as previously described. (Yang, Y. (2004) Nat. Immunol. 5:508-15). CD3^+ T cells were isolated from B6 mice using a CD3 negative selection magnetic bead kit (Invitrogen, Carlsbad, United States). Proliferation assays were performed as previously described. (Brennan, T. V. et al. (2008) Transplantation 85:247-55).
Purified T cells from C57BL/6 mice were stimulated with bone marrow-derived DCs from BALB/c mice and their proliferation was measured by the incorporation of ^3H-thymidine. DAMPs tested included proteins—fibronectin (FN), fibrinogen (Fbn), heat shock protein 70 (HSP70), and high-mobility group protein B1 (HMGB1); and glucosaminoglycans—heparan sulfate (HS) and hyaluronan (HA). For comparison, two well-described PAMPs, lipopolysaccharide (LPS) and a synthetic tripalmitoylated lipopeptide (Pam3CSK4) that are ligands of the TLR4 homodimer and the TLR1/2 heterodimer, respectively, were tested. As nucleotide-binding domain, leucine-rich repeat containing receptors (NLRB) are another family of innate immune receptors, ligands of NLR1 (C12-iE-DAP) and NLR2 (L18-MDP) were further tested.
Next, to investigate whether HS enhanced proliferation of allogeneic T cells was due to the stimulation of TLRs on DCs or T cells, because MyD88 is a common adaptor protein involved in the signal transduction of all TLRs with the exception of TLR3^9, HS was tested against DCs or T cells that were deficient for MyD88. For this purpose, T cells from WT or MyD88^−/− C57BL/6 mice were stimulated with DCs from WT or MyD88^−/− BALB/c mice in an allogeneic proliferation assay in the presence of HS, LPS, Pam3CSK4, or media alone.
HS has been shown as a TLR4 ligand, (Johnson, G. B. et al., (2002) J. Immunol. 168:5233-39; Johnson, G. B., Brunn, G. J. & Platt, J. L. (2004) J. Immunol. 172:20-24). To determine whether the absence of TLR4 expression on stimulating DCs would reduce HS-induced alloreactive T cell proliferation equivalent to MyD88 deficiency, purified T cells from C57BL/6 mice were co-cultured with irradiated WT, TLR4^−/−, and MyD88^−/− BALB/c DCs and proliferation was measured by the incorporation of ^3H-thymidine.
Cytokine analysis: Cell culture supernatants were obtained from DC cultures or T cell proliferation assays and assayed for IL-6, IL-12 and IFN-γ by ELISA (BD Biosciences) according to the manufacturer's standard protocols. HEK 293 supernatants were tested for human IL-8 by ELISA (BioLegend, San Diego, United States).
Allogenic heart transplants were performed between C57BL/6 donors and (BALB/c x DBA.1)F1 recipients. Serum HS was measured by ELISA Immunohistologic staining for HS and CD3 was performed on heart tx tissue. Bone marrow derived dendritic cells (DCs) and purified T cells from WT-, MyD88- or TLR4-deficient mice were used in MLR assays to test for proliferation and cytokine production in response to HS. CD40 and CD80 expression on stimulated DCs was measured by FACS. T cell proliferation was determined by ^3H-thymidine incorporation and CFSE dye dilution assay. HEK293 NF-kB-luciferase reporter cell lines stably expressing CD14, MD2, and TLR4 or TLR2 were used in assays of HS activity.

[2] = system: BALB/c recipients of B10.D2 Allo-BM+LC (GVHD); experiment: Murine Allo-HSCT model of GVHD (B10.D2→BALB/c); type: in vivo, mouse
Experimental: BALB/c recipient of B10.D2 Allo-BM+LC were treated with subcutaneous injections of the HS mimetic, PG545 (20 mg/kg in PBS), or PBS control once weekly, beginning 1 day prior to Allo-HSCT. […] FIG. 9C is a graph showing survival analysis of Allo-BM+LC+PG545 (n=10) compared to Allo-BM+LC+PBS (n=10).
Antibodies and flow cytometry: Anti-CD40 (HM40-3), anti-CD80 (16-10A1), anti-Thy1.1 (OX-7), anti-Ly5.1 (A20) anti-IFN-γ (XMG1.2), rat IgG1 isotype (R3-34), and the BrdU Flow Kit (FITC-labeled) were from BD Biosciences (San Jose, Calif., USA). Intracellular IFN-γ staining was performed as previously described. […] For in vivo BrdU labeling, mice were injected with 50 μg BrdU/gm i.p. 1 hour prior to analysis. Collection of flow cytometric data was acquired using a FACSCanto (BD Biosciences), and events were analyzed using FloJo software (Tree Star, Inc., Ashland, United States). […]
Allo-HSCT: For Allo-HSCT, wild-type (WT) and TLR4−/− BALB/c mice received myeloablative total-body irradiation (8.5 Gy) followed by intravenous infusion of 1×10^7 B10.D2 or BALB/c T-cell depleted bone marrow (TCD-BM). […] To induce GVHD, 5×10^6 lymph node cells from inguinal, axillary, cervical and mesenteric lymph nodes of B10.D2 or BALB/c mice were injected intravenously in addition to TCD-BM.
In another model of acute GVHD, 5×10^6 lymph node cells and 1×10^7 TCD BM from C3H.SW were transferred to C57BL/6 recipients irradiated with 10 Gy. HSCT recipients of these two GVHD models then received either intraperitoneal (i.p.) injections of 2 mg of al-antitrypsin (A1AT, Aralast™, Baxter, Deerfield, United States) resuspended in 200 μL sterile phosphate-buffered saline (PBS), subcutaneous (s.c.) injections of 20 mg/kg PG545 (Progen Pharmaceuticals Limited, Queensland, Australia) in 200 μL PBS, or 200 μL PBS alone at the indicated intervals.
In this model, lethally irradiated BALB/c mice were transplanted with 1×10^7 T cell-depleted bone marrow (TCD-BM) and 5×10^6 lymphocytes (LCs) from B10.D2 mice (Allo-BM+LC). Control mice received B10.D2 TCD-BM only (Allo-BM only) or syngeneic BALB/c TCD-BM and 5×10^6 BALB/c LCs (Syn-BM+LC).

BALB/c DCs = experiment: DC maturation: surface expression of CD40 and CD80 by FACS; type: cell-based, mouse; conditions: 24 h; HS 100 μg/mL, Pam3CSK4 2 μg/mL
Experimental: FIG. 3A is a graph showing WT, TLR4^−/−, or MyD88^−/− BALB/c DCs (2×10^5/well) were stimulated with LPS (100 ng/mL), HS (100 μg/mL), or Pam3CSK4 (2 μg/mL), or left unstimulated (media) for 24 hours, and measured for surface expression of co-stimulatory molecules CD40 and CD80 by FACS analysis. FIGS. 3B and 3C are graphs showing WT, MyD88^−/−, and TLR4^−/− BALB/c cultured DCs were co-cultured with media alone, LPS, HS, or Pam3CSK4 as in (A) and culture supernatants were tested for IL-6 (B) and IL-12 (C) by ELISA. Data are representative of three independent experiments; *p<0.05 compared with media alone.
To investigate how activation of DCs by HS promoted the alloreactive T cell response, an as DC maturation and production of pro-inflammatory cytokines are key initial events in triggering adaptive immune responses, the ability of HS to upregulate DC expression of costimulatory molecules, CD40 and CD80, and pro-inflammatory cytokines, IL-6 and IL-12 was tested.
Antibodies and flow cytometry: Anti-CD40 (HM40-3), anti-CD80 (16-10A1), anti-Thy1.1 (OX-7), anti-Ly5.1 (A20) anti-IFN-γ (XMG1.2), rat IgG1 isotype (R3-34), and the BrdU Flow Kit (FITC-labeled) were from BD Biosciences (San Jose, Calif., USA). Intracellular IFN-γ staining was performed as previously described. (Brennan, T. V. et al. (2008) Transplantation 85:247-55). For in vivo BrdU labeling, mice were injected with 50 μg BrdU/gm i.p. 1 hour prior to analysis. Collection of flow cytometric data was acquired using a FACSCanto (BD Biosciences), and events were analyzed using FloJo software (Tree Star, Inc., Ashland, United States).

[3] = system: C57BL/6 recipients of C3H.SW TCD-BM and LCs (GVHD); experiment: Second GVHD model (C3H.SW→C57BL/6); type: in vivo, mouse; conditions: A1AT 2 mg i.p. every 3 days; p=0.032
Experimental: FIG. 7A is a graph showing serum HS concentrations at the indicated time points following Allo-HSCT (B10.D2→BALB/c; 1×10^7 B10.D2 TCD-BM and 5×10^6 B10.D2 LC) treated with A1AT (2 mg) or PBS every 3 days by i.p. injection, starting 1 day prior to transplantation; n=3 per data point, as determined by ELISA assay; *p<0.05. FIG. 7B is a graph showing survival and FIG. 7C is a graph showing GVHD clinical score of Allo-BM only (n=5) or Allo-BM+LC treated with A1AT (n=8) or PBS (n=5). Data is from one of two independent experiments with identical results. […] Survival of BALB/c recipients of Allo-BM+LC from B10.D2 donors (n=11) and TLR4^−/− BALB/c recipients of Allo-BM+LC from B10.D2 donors administered A1AT (n=8) or PBS (n=14) every 3 days by intraperitoneal injection, starting 1 day prior to transplantation.
In another model of acute GVHD, 5×10^6 lymph node cells and 1×10^7 TCD BM from C3H.SW were transferred to C57BL/6 recipients irradiated with 10 Gy. HSCT recipients of these two GVHD models then received either intraperitoneal (i.p.) injections of 2 mg of al-antitrypsin (A1AT, Aralast™, Baxter, Deerfield, United States) resuspended in 200 μL sterile phosphate-buffered saline (PBS), subcutaneous (s.c.) injections of 20 mg/kg PG545 (Progen Pharmaceuticals Limited, Queensland, Australia) in 200 μL PBS, or 200 μL PBS alone at the indicated intervals. […]

[4] = splenocytes six days after transplantation, vs PBS

## HSP70: heat shock protein 70 (Assay Designs), a DAMP [reference compound]
[1]
  alloreactive T cell proliferation compared to media alone: significantly increased

## CC(C)CCC[C@@H](C)[C@H]1CC[C@H]2[C@@H]3CC[C@H]4C[C@@H](O[C@@H]5O[C@H](COS(=O)(=O)O)[C@@H](O[C@H]6O[C@H](COS(=O)(=O)O)[C@@H](O[C@H]7O[C@H](COS(=O)(=O)O)[C@@H](O[C@H]8O[C@H](COS(=O)(=O)O)[C@@H](OS(=O)(=O)O)[C@H](OS(=O)(=O)O)[C@H]8OS(=O)(=O)O)[C@H](OS(=O)(=O)O)[C@H]7OS(=O)(=O)O)[C@H](OS(=O)(=O)O)[C@H]6OS(=O)(=O)O)[C@H](OS(=O)(=O)O)[C@H]5OS(=O)(=O)O)CC[C@]4(C)[C@H]3CC[C@]12C [PG545, reference compound]
[2]; PG545 20 mg/kg s.c. once per week from one day prior to transplant
  post-transplant serum HS levels compared to PBS: higher
[2]; PG545 20 mg/kg s.c. weekly, PBS 29, p<0.001
  rate of GVHD (survival analysis): 21 days
[2]; post-transplant day 6, PG545 20 mg/kg s.c. weekly, PBS 12.9±2.0, n=3, p<0.05
  percentage of proliferating donor CD8 T cells (BrdU uptake): 23.2±2.3

## Pam3CSK4 [reference compound]
BALB/c DCs
  upregulation of CD40 and CD80 on MyD88−/− DCs: but not on MyD88^−/− DCs
  upregulation of CD40 and CD80 on TLR4−/− DCs: able to upregulate
  upregulation of CD40 and CD80 on WT DCs: able to upregulate

## A1AT: α1-antitrypsin (Aralast, Baxter), serum serine protease inhibitor
[2]; 3 weeks post-transplant, vs PBS
  GVHD pathology scores (ear skin): significantly lower
[2]; A1AT 2 mg i.p. every 3 days, PBS controls 28.0, p<0.001
  survival (MST): 48.5 days
[2]; Allo-BM+LC recipients, 10-point scale, p=0.03
  GVHD clinical score curve: significantly lower
[2]; TLR4−/− BALB/c recipients of B10.D2 Allo-BM+LC, p=0.30
  survival in TLR4−/− recipients compared to PBS treated TLR4−/− mice: no further survival benefit
[2]; days 9 and 14 following HSCT, A1AT 2 mg i.p. every 3 days from 1 day prior to transplant
  serum HS levels compared to PBS: significantly lower
[2]; [4]
  BrdU incorporation by donor Thy1.1+ T cells: significantly reduced
  IFN-γ production by donor Thy1.1+ T cells: significantly reduced
[3]
  survival compared with PBS treated group: significant survival benefit

## CCCCCCCCCCCC(=O)N[C@H](CCC(=O)NC(CCCC(N)C(=O)O)C(=O)O)C(=O)O (some centres unmarked) [C12-iE-DAP, reference compound]
[1]
  alloreactive T cell proliferation compared to media alone: Neither of the NLR ligands tested produced a significant increase

## polymyxin B [PMB, reference compound]
[1]; PMB 10 ug/mL, LPS 100 ng/mL
  effect on LPS-induced proliferation: significant decrease
